This is an account of results in patent publication US20230312587A1, “PTERIDINONE COMPOUNDS AND USES THEREOF” (Vertex Pharmaceutical Incorporated, priority 2018, published 2023).

The assay concerns β-catenin-TCF-mediated reporter transcription activity in Colo 205 cells. Description: Colo 205 reporter assay (TCF/LEF luciferase). Format: cell-based. The conditions noted are these: Homo sapiens, COLO 205, 5 h, Colo 205 TCF/LEF luciferase reporter, five hours after addition of compound; read-out: TCF reporter Colo205 IC50. In outline: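 Luciferase signal from a TCF/LEF-driven reporter, stably integrated in Colo 205 colon cancer cells, was measured 5 h after compound addition.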

As a reminder, the IC50 is the concentration at which inhibition is half-maximal. Take `Cc1nc(N[C@H]2C[C@@H](Nc3ccnc(C(F)(F)F)n3)C2)nc2c1NC(=O)[C@H](C(C)C)N2C` [Compound 539, (S)-7-isopropyl-4,8-dimethyl-2-((cis-3-((2-(trifluoromethyl)pyrimidin-4-yl)amino)cyclobutyl)amino)-7,8-dihydropteridin-6(5H)-one]: the IC50 fell in the range of 300 to 1000 nM.
On to `Cc1nc(N[C@H]2C[C@H](Nc3ccnc(C(F)(F)F)n3)C2)nc2c1NC(=O)[C@H](C(C)C)N2C` [Compound 540, (S)-7-isopropyl-4,8-dimethyl-2-((trans-3-((2-(trifluoromethyl)pyrimidin-4-yl)amino)cyclobutyl)amino)-7,8-dihydropteridin-6(5H)-one], for which the IC50 lay within 1000 to 5000 nM.
Under `Cc1nc(NC2CN(C(=O)C3CCC(F)(F)CC3)C2)nc2c1NC(=O)[C@H](C(C)C)N2C` [Compound 543, (S)-2-((1-(4,4-difluorocyclohexane-1-carbonyl)azetidin-3-yl)amino)-7-isopropyl-4,8-dimethyl-7,8-dihydropteridin-6(5H)-one] stands 1000 to 5000 nM.
`Cc1nc(NC2CN(C(=O)Cc3cc(F)c(F)c(F)c3)C2)nc2c1NC(=O)[C@H](C(C)C)N2C` [Compound 544, (S)-7-isopropyl-4,8-dimethyl-2-((1-(2-(3,4,5-trifluorophenyl)acetyl)azetidin-3-yl)amino)-7,8-dihydropteridin-6(5H)-one]: the IC50 was under 300 nM.
Under `Cc1nc(N[C@H]2CCc3nn(Cc4ccc(C(F)(F)F)nc4)cc32)nc2c1NC(=O)[C@H](C)N2C` [Compound 546, (7S)-4,7,8-trimethyl-2-(((S)-2-((6-(trifluoromethyl)pyridin-3-yl)methyl)-2,4,5,6-tetrahydrocyclopenta[c]pyrazol-4-yl)amino)-7,8-dihydropteridin-6(5H)-one] stands at least 5000 nM; under `Cc1nc(N[C@@H]2CCc3nn(Cc4ccc(C(F)(F)F)nc4)cc32)nc2c1NC(=O)[C@H](C)N2C` [Compound 547, (7S)-4,7,8-trimethyl-2-(((R)-2-((6-(trifluoromethyl)pyridin-3-yl)methyl)-2,4,5,6-tetrahydrocyclopenta[c]pyrazol-4-yl)amino)-7,8-dihydropteridin-6(5H)-one], 1000 to 5000 nM.
Take `Cc1nc(NC2CN(C(=O)c3ccc(F)cc3)C2)nc2c1NC(=O)[C@H](C(C)C)N2C` [Compound 548, (S)-2-((1-(4-fluorobenzoyl)azetidin-3-yl)amino)-7-isopropyl-4,8-dimethyl-7,8-dihydropteridin-6(5H)-one]: the IC50 is 300 to 1000 nM.
Regarding `Cc1nc(NCc2cnn(Cc3ccc(Cl)nc3)c2)nc2c1NC(=O)[C@H](CC(C)C)N2C` [Compound 550, (S)-2-(((1-((6-chloropyridin-3-yl)methyl)-1H-pyrazol-4-yl)methyl)amino)-7-isobutyl-4,8-dimethyl-7,8-dihydropteridin-6(5H)-one], the 50% inhibitory concentration (IC50) is under 300 nM.
With `Cc1nc(N[C@H]2C[C@@H](Nc3cc(C(F)(F)F)ncn3)C2)nc2c1NC(=O)[C@H](C)N2C` [Compound 552, (S)-4,7,8-trimethyl-2-((cis-3-((6-(trifluoromethyl)pyrimidin-4-yl)amino)cyclobutyl)amino)-7,8-dihydropteridin-6(5H)-one], the IC50 was at least 5000 nM.
Under `Cc1nc(N[C@H]2C[C@H](NC(=O)Cn3ccc(C(F)(F)F)n3)C2)nc2c1NC(=O)[C@H](C(C)C)N2C` [Compound 554, N-(trans-3-(((S)-7-isopropyl-4,8-dimethyl-6-oxo-5,6,7,8-tetrahydropteridin-2-yl)amino)cyclobutyl)-2-(3-(trifluoromethyl)-1H-pyrazol-1-yl)acetamide] stands 1000 to 5000 nM.
Turning to `Cc1nc(N[C@H]2C[C@H](Nc3ccc(C(F)(F)F)nn3)C2)nc2c1NC(=O)[C@H](C(C)C)N2C` [Compound 555, (S)-7-isopropyl-4,8-dimethyl-2-((trans-3-((6-(trifluoromethyl)pyridazin-3-yl)amino)cyclobutyl)amino)-7,8-dihydropteridin-6(5H)-one], the IC50 is 1000 to 5000 nM.
Under `Cc1nc(N[C@H]2C[C@H](Nc3cnc(C(F)(F)F)cn3)C2)nc2c1NC(=O)[C@H](C(C)C)N2C` [Compound 558, (S)-7-isopropyl-4,8-dimethyl-2-((trans-3-((5-(trifluoromethyl)pyrazin-2-yl)amino)cyclobutyl)amino)-7,8-dihydropteridin-6(5H)-one] stands 1000 to 5000 nM.
Regarding `Cc1nc(N[C@H]2C[C@@H](NC(=O)Cc3ccc(C(F)(F)F)nc3)C2)nc2c1NC(=O)[C@H](C(C)C)N2C` [Compound 559, N-(cis-3-(((S)-7-isopropyl-4,8-dimethyl-6-oxo-5,6,7,8-tetrahydropteridin-2-yl)amino)cyclobutyl)-2-(6-(trifluoromethyl)pyridin-3-yl)acetamide], the IC50 lay in the range of 1000 to 5000 nM.
On to `Cc1nc(N[C@H]2C[C@H](NC(=O)Cc3ccc(C(F)(F)F)nc3)C2)nc2c1NC(=O)[C@H](C(C)C)N2C` [Compound 560, N-(trans-3-(((S)-7-isopropyl-4,8-dimethyl-6-oxo-5,6,7,8-tetrahydropteridin-2-yl)amino)cyclobutyl)-2-(6-(trifluoromethyl)pyridin-3-yl)acetamide], for which the IC50 is at least 5000 nM.
For the molecule `Cc1nc(N[C@H]2C[C@@H](Nc3cc(C(F)(F)F)ccn3)C2)nc2c1NC(=O)[C@H](C(C)C)N2C` [Compound 561, (S)-7-isopropyl-4,8-dimethyl-2-((cis-3-((4-(trifluoromethyl)pyridin-2-yl)amino)cyclobutyl)amino)-7,8-dihydropteridin-6(5H)-one], the IC50 was under 300 nM.
The figure for `Cc1nc(N[C@H]2C[C@@H](Nc3ccc(C(F)(F)F)cn3)C2)nc2c1NC(=O)[C@H](C)N2C` [Compound 562, (S)-4,7,8-trimethyl-2-((cis-3-((5-(trifluoromethyl)pyridin-2-yl)amino)cyclobutyl)amino)-7,8-dihydropteridin-6(5H)-one] is 300 to 1000 nM; for `Cc1nc(NCc2cnn(Cc3ccc(C(F)(F)F)nc3)c2)nc2c1NC(=O)[C@H](CC(C)C)N2C` [Compound 563, (S)-7-isobutyl-4,8-dimethyl-2-(((1-((6-(trifluoromethyl)pyridin-3-yl)methyl)-1H-pyrazol-4-yl)methyl)amino)-7,8-dihydropteridin-6(5H)-one] it is under 300 nM.
For `Cc1nc(NC2CN(C(=O)Nc3cc(F)c(F)c(F)c3)C2)nc2c1NC(=O)[C@H](C(C)C)N2C` [Compound 564, (7S)-3-((7-isopropyl-4,8-dimethyl-6-oxo-5,6,7,8-tetrahydropteridin-2-yl)amino)-N-(3,4,5-trifluorophenyl)azetidine-1-carboxamide], the IC50 is 1000 to 5000 nM.
Take `Cc1nc(NCc2cnn(Cc3ccc(Cl)nc3)c2)nc2c1NC(=O)[C@H](C1CCC1)N2C` [Compound 566, (7S)-2-(((1-((6-chloropyridin-3-yl)methyl)-1H-pyrazol-4-yl)methyl)amino)-7-cyclobutyl-4,8-dimethyl-7,8-dihydropteridin-6(5H)-one]: the IC50 is under 300 nM.
For the molecule `Cc1nc(NCc2cnn(Cc3ccc(C(F)(F)F)nc3)c2)nc2c1NC(=O)[C@H](C1CCC1)N2C` [Compound 567, (7S)-7-cyclobutyl-4,8-dimethyl-2-(((1-((6-(trifluoromethyl)pyridin-3-yl)methyl)-1H-pyrazol-4-yl)methyl)amino)-7,8-dihydropteridin-6(5H)-one], the IC50 is under 300 nM.
